Here are results for two compounds from publication PMC9705314, “Characterization of a new potent and long-lasting single chain peptide agonist of RXFP1 in cells and in vivo translational models” (Scientific Reports, 2022).

*1 amine or outer side, *2 acyl side, *3 side chain or, on linkers, in order; H or OH if unused. Where a SMILES comes first, the peptide text is derived from it. Side-chain parts run from the residue outwards. [ ]: non-standard residue; d: D form. The star is where a group is joined. γGlu = O=C(O)[C@H](CCC(=O)[*:2])N[*:1]; Stearoyl = CCCCCCCCCCCCCCCCCC(=O)*; Nle = CCCC[C@H](N)C(=O)O; AEEA = NCCOCCOCC(=O)O; Aib = CC(C)(N)C(=O)O

The nature of data set [1]: Pharmacokinetics in Sprague-Dawley rats. The data set is classed as in vivo, rat. Particulars: for T1/2 (apparent terminal half-life): 1 mg/kg; for CL / AUXext: IV 1 mg/kg. Here is the method: Sprague Dawley rats (10–12 weeks old) obtained from Charles Rivers Laboratories (Como, Iltaly) were dosed with study peptide at 1 mg/kg IV and 3 mg/kg SC as a solution in PBS (0.2 mg/mL and 0.6 mg/mL respectively). Blood samples were collected from individual animals at the following time points: 0.083, 0.25, 0.5, 1, 3, 6, 8, 24, 48 and 72 h (IV route) and 0.25, 0.5, 1, 2, 4, 8, 12, 24, 48 and 72 h (SC route). All samples, collected into K3-EDTA tubes, were centrifuged and plasma was harvested and stored at − 80 °C until analysis. Two hundred μL of 0.1% formic acid in methanol containing 10 ng/mL warfarin as internal standard were added to 50 μL of standard, QC and PK study samples to obtain the protein precipitation. Each sample was vortexed and centrifuged, for 20 min, at 17,000 rcf at 4 °C. Ten microliters of the extracted plasma samples were injected onto the column. Chromatographic separation was performed on an Ultimate 3000 (Thermo Scientific) chromatography system using an XSelect Peptide CSH C18, (50 mm × 2.1 mm I.D., 2.5 μm, 130 Å; Waters Corporation) with a flow rate of 0.500 mL/min at 60 °C and a two-solvent linear gradient system. Solvents A (water) and B (acetonitrile) contained both 0.1% formic acid. […] The Ultimate 3000 was coupled to an Orbitrap QExactive™ mass spectrometer (Thermo Scientific) in positive mode. Quantitation was performed in full scan. The optimized source parameters were as follows: ion spray voltage 2.9 kV, sheath gas flow 50 a.u., aux gas flow 15 a.u., aux T 300 °C, capillary T 320 °C, S-lens RF level 50%. Full MS parameters were as follows: mass range 150–2000, AGC target 1 × 10^6, max injection time 250 ms, resolution 70,000 (FWHM @ 200 m/z). Data processing was performed using Xcalibur 3.0 (Thermo Scientific). Ion current of the [M + 5H]5 + of the SA10SC-RLX was extracted with 5 ppm window for quantitation (814.47219 m/z). A calibration curve with 12 standard points was prepared freshly on the day of analysis by spiking appropriate amounts of an intermediate working standard solution into blank rat plasma and ranged from 1.22 to 20,000 ng/mL (0.30–4910 nM). Three QC samples, each at six concentration levels from 5.0 to 15,000 ng/mL (1.22–3690 nM), were used for all analyses. Calibration curves were prepared by plotting the analyte to internal standard peak area ratio versus concentration. Calibration standards were fit by linear regression with 1/x^2 weighting. QC samples (n = 3) were used at six concentration levels. Accepted calibration curve contained minimum 7 concentration levels within ± 20% of nominal. Accepted QCs were within ± 25% of nominal. PK parameters were calculated by non-compartmental analysis using Watson LIMS 7.5.

The target in data set [2] is T1, RXFP1 (Rattus norvegicus, UniProt Q6R6I6).
T1 construct: measured in conscious telemetered SD rats; tissue Charles River Laboratories; host or cells: whole animal, male Sprague Dawley rats (heart; renal vasculature)
T1 sequence (Q6R6I6 1-758): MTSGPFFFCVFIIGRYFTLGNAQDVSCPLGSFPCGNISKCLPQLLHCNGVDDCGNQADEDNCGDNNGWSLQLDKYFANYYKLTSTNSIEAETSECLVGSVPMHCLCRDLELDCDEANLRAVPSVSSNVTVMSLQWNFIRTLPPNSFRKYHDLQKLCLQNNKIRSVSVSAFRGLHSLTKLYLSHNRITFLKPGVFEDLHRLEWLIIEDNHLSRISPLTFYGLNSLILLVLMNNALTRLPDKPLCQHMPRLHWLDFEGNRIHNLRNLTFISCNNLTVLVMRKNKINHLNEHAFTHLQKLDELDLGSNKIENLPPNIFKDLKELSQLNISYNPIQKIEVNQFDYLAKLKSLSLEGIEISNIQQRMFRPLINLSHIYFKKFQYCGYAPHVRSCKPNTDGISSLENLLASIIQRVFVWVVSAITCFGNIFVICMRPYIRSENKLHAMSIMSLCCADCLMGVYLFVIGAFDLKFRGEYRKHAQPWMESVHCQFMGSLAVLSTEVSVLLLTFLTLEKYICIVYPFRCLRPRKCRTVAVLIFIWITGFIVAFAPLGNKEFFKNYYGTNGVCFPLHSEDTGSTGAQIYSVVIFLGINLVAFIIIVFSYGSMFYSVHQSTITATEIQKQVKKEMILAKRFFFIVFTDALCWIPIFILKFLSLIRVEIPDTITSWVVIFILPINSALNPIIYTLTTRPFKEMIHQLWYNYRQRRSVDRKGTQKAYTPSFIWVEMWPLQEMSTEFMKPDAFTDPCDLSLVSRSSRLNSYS
Description: Telemetry (heart rate) in conscious SD rats. In kind it is in vivo. The settings on record: conscious telemetered SD rats, single iv relaxin 1, 3 and 10 µg/kg, n = 5/group.

On to `CCCCCCCCCCCCCCCCCC(=O)N[C@@H](CCC(=O)N[C@@H](CCC(=O)N[C@@H](CCC(=O)NCCOCCOCC(=O)NCCOCCOCC(=O)NCCOCCOCC(=O)NCCCC[C@H](NC(=O)[C@H](CCCCNC(C)=O)NC(=O)[C@H](CCCCN)NC(=O)[C@H](CCCNC(=N)N)NC(=O)C(C)(C)NC(=O)[C@H](CO)NC(=O)[C@H](Cc1c[nH]c2ccccc12)NC(=O)[C@@H](NC(=O)[C@H](CO)NC(=O)[C@H](CCCC)NC(=O)CNC(=O)[C@H](CCC(=O)O)NC(=O)C(C)(C)NC(=O)C(C)(C)NC(=O)[C@@H](NC(=O)[C@H](CCCCNC(C)=O)NC(=O)[C@H](C)NC(=O)[C@H](CCCNC(=N)N)NC(=O)[C@@H](NC(=O)[C@H](CCCCN)NC(=O)[C@H](CCC(=O)O)NC(=O)[C@H](CCCNC(=N)N)NC(=O)CNC(=O)[C@H](CCC(=O)O)NC(=O)[C@H](CC(C)C)NC(C)=O)C(C)C)[C@@H](C)CC)[C@@H](C)O)C(N)=O)C(=O)O)C(=O)O)C(=O)O` [SA10SC-RLX] (Ac-LEGREKVRAK(Ac)I[Aib][Aib]EG[Nle]STWS[Aib]RKK(Ac)K([AEEA-AEEA-AEEA-γGlu-γGlu-γGlu-Stearoyl])-NH2), for which the level at time molar at 12 h in data set [1] (Sprague-Dawley, rat, plasma, rats, SC 3 mg/kg, read-out: plasma concentration after 12 h) was roughly 1000 nM. The “T1/2 (apparent terminal half-life)” value in data set [1] (male Sprague-Dawley rats, IV 1 mg/kg in PBS, plasma, LC-HRMS, non-compartmental analysis, mean of n = 3) is 4 h; in data set [1] (male Sprague-Dawley rats, IV 1 mg/kg in PBS, plasma, LC-HRMS, non-compartmental analysis, mean of n = 3, listed as SA10SC_RLX) it was 3.9 h. In addition, the CL in data set [1] (male Sprague-Dawley rats, plasma, LC-HRMS, animal 1) is recorded as 0.48 mL/min/kg; in data set [1] (male Sprague-Dawley rats, plasma, LC-HRMS, animal 2), 0.44 mL/min/kg; in data set [1] (male Sprague-Dawley rats, plasma, LC-HRMS, animal 3) it was 0.38 mL/min/kg. Moreover, the AUXext in data set [1] (male Sprague-Dawley rats, plasma, animal 1) is 1.01%; in data set [1] (male Sprague-Dawley rats, plasma, animal 2), 1.01%; in data set [1] (male Sprague-Dawley rats, plasma, animal 3) it was 1.02%. In data set [1] (male Sprague-Dawley rats, SC 3 mg/kg in PBS, plasma, LC-HRMS, non-compartmental analysis, mean of n = 3), this compound gave a Cmax of 1500 nM. Further, in data set [1] (male Sprague-Dawley rats, SC 3 mg/kg in PBS, plasma, LC-HRMS, mean of n = 3), the Tmax is 8 h. For the same compound, the F in data set [1] (male Sprague-Dawley rats, SC 3 mg/kg vs IV 1 mg/kg, mean of n = 3) was determined as 74%. Besides, the AUCext in data set [1] (male Sprague-Dawley rats, SC 3 mg/kg, plasma, mean of n = 3) was 1.09%. The AUC stood at 9.57 µM·h in data set [1] (rat, male Sprague-Dawley rats, IV 1 mg/kg in PBS, plasma, LC-HRMS, non-compartmental analysis, mean of n = 3) and 21.2 µM·h in data set [1] (rat, male Sprague-Dawley rats, SC 3 mg/kg in PBS, plasma, LC-HRMS, non-compartmental analysis, mean of n = 3). For the same compound, the clearance in data set [1] (rat, male Sprague-Dawley rats, IV 1 mg/kg in PBS, plasma, LC-HRMS, non-compartmental analysis, mean of n = 3, read-out: CL (plasma clearance)) was 0.43 mL/min/kg. In addition, the C0 in data set [1] (rat, male Sprague-Dawley rats, IV 1 mg/kg in PBS, plasma, LC-HRMS, non-compartmental analysis, mean of n = 3, read-out: Co) was 3200 nM. For the same compound, the Vd in data set [1] (rat, male Sprague-Dawley rats, IV 1 mg/kg in PBS, plasma, LC-HRMS, non-compartmental analysis, mean of n = 3, read-out: Vss) worked out at 0.12 L/kg.

For the compound relaxin, the “duration of the heart rate effect” value in data set [2] fell in the range of 4 to 6 h.

By Cmax is commonly meant the maximum level reached in the sampled fluid or tissue. For orientation: Tmax means the time at which the peak concentration occurs. Broadly, the AUC is the area under the concentration-time curve, a measure of exposure. The term clearance denotes a measure of how efficiently the substance is removed, as volume per time.
